The source of these data is patent publication US20050106305A1, “Beverage compositions comprising monatin and methods of making same” (Cargill, Inc., priority 2003, published 2005).

The structures appear in SMILES notation. Where a SMILES comes first, the peptide text is derived from it.

The nature of data set [1]: Monatin dose response, sweetness estimation in pH 3.2 model soft drink system. It counts as in vivo. Conditions: for SEV: pH 3.2 model soft drink system. As for the experimental part:
Solutions of monatin (mixture of approximately 96% of the 2R,4R/2S, 4S enantiometric pair and 4% of the 2R,4S/2S,4R enantiometric pair-also called “racemic mix” of monatin”) at 15, 30, 45, 60, 75 and 90 ppm were prepared in a pH 3.2 model soft drink system that contained 0.14% (w/v) citric acid and 0.04% (w/v) sodium citrate. The sweetness of monatin relative to sucrose was determined using the sweetness estimation methodology described below. All assessments were carried out in duplicate by a panel (n=6-8) of trained panelists experienced in this sweetness determination procedure. All samples were served at a temperature of 20° C. ±1° C.
Monatin solutions were coded and presented individually to panelists, in random order. Sucrose reference standards, ranging from 2.0-11.0% (w/v) sucrose, increasing in steps of 0.5% (w/v) sucrose also were provided. Panelists were asked to estimate sweetness by comparing the sweetness of the test solution to the sucrose standards. This was carried out by taking 3 sips of the test solution, followed by a sip of water, followed by 3 sips of sucrose standard followed by a sip of water, etc. Panelists were encouraged to estimate the sweetness to one decimal place, e.g., 6.8, 8.5. A five minute rest period was imposed between evaluating the test solutions. Panelists also were asked to rinse well and eat a cracker to reduce any potential carry over effects.

Data set [2] can be described thus: Equisweet blends of monatin with carbohydrate sweeteners (parity to 10.0% sucrose). It counts as in vivo. As to conditions: for Effective Relative Sweetness Intensity (x sucrose) of Monatin: blend with sucrose equisweet to 10.0% sucrose. How it is done: Blends of monatin (as described in Example 14) with sucrose, HFCS (55% fructose), and glucose syrup (63 dextrose equivalents, DE) equisweet to 10.0% (w/v) sucrose were prepared. For each carbohydrate sweetener, the monatin:sweetener ratio was adjusted so that monatin delivered 25, 50, and 75% of the total sweetness. Sweetness parity to 10.0% (w/v) sucrose was determined using the sweetness estimation method described in Example 14. As in Example 14, all assessments were carried out in the pH 3.2 model soft drink system, using 6-8 panelists, each tasting in duplicate. Results are presented as Tables 7-9.

Data set [3] can be described thus: Time intensity profile in a soft drink system. The class given is in vivo. Conditions: 80 ppm monatin, 10.0% sucrose, 200 ppm sucralose, pH 3.2 model soft drink. As for the experimental part: Solutions of 80 ppm monatin (racemic mix of monatin described in Example 14), 10.0% (w/v) sucrose and 200 ppm sucralose were prepared in the pH 3.2 model soft drink system described in Example 14. The time intensity profile of these solutions then was assessed using the following procedure. Six panelists were included in the study. These panelists were screened for their general sensory acuity and selected for their sensitivity to sweetness intensity and sweetness quality differences. All were experienced in methods of sweetener assessment and had received special training in time intensity evaluations. Training sessions were carried out initially to familiarize the panel with the method of evaluation and scoring the samples over time using a computerized data entry system.
Samples of each solution (13 mL) were coded and presented individually to panelists, in random order. For each panelist, immediately after swallowing, the computer recorded timed intensity readings on the scale of 0-100 each second, up to 60 seconds. Each solution was evaluated in duplicate.

The nature of data set [4]: Sensory stability of monatin in water. It counts as physicochemical. How it is done: The sensory stability of monatin (racemic mix described in Example 14) in water (8% SEV) was studied after storage at room temperature for 0 to 6 hours. The SEV was monitored (as described above in Example 14) at either 0-1 hours or 5-6 hours after preparing a monatin solution.
Data set [5] is described as follows: Stability when exposed to ultra violet (UV) light. As to conditions: phosphoric/citrate buffer at pH 3.0, ambient temperature; data not shown. It counts as physicochemical. From the text: UV instability can be accelerated by certain flavor systems. UV-absorbing packaging material, colorants and/or antioxidants can protect against UV light-induced flavor interactions in monatin-containing beverages.

The nature of data set [6]: Stability of monatin at 80° C. and neutral pH, LC-MS. The class given is physicochemical. As to conditions: 75 ppm. How it is done:
A 100 milliliter solution of 75 ppm monatin at pH 7 was used as a stock solution. The synthetic monatin sample contained approximately 96% of the 2R,4R/2S,4S enantiomeric pair and 4% of the 2R,4S/2S,4R enantiomeric pair. Samples were incubated at 80° C. and pH 7 for the duration of the experiment and samples were withdrawn at 0, 1, 2, 3, 4 hours and 1, 2, 4, 7, 14, 21 and 35 days. All experimental conditions were run in duplicate.
Separation and Quantification Using LC-MS Using Reverse Phase Chromatography—A response curve was established for both detected diastereomer peaks of the synthetic monatin. A range of 5-150 ppm was bracketed with the synthetic monatin standard dissolved in DI water. Separation of the two diastereomer peaks was accomplished using a 3.9×150 mm Novapak C18 (Waters Corporation) HPLC column. Ultraviolet-Visible (UV) and Mass Spectrometer (MS) detectors were used in series for detection and quantitation. Monatin and its lactone peak each have a UVmax at 279 nm that aided in precise detection. Quantification was done by acquiring Selected Ion Monitoring (SIM) scan of 293.3 m/z and 275.3 m/z in positive-ion electrospray mode.

Data set [7] in a line: Quantitative synergy of monatin with other sweeteners. The class given is in vivo.
Data set [8] in a line: Sensory evaluation of sweeteners in coffee and iced tea. It counts as in vivo. As to conditions: Coffee, 200 mL serving; aspartame 250 ppm, sucralose 82 ppm, R,R monatin 25 ppm + maltodextrin or erythritol (1 g, 0.5%). How it is done:
Monatin sweetener formulations, comprising R,R monatin or R,R monatin/erythritol combinations, were assessed relative to other known sweeteners (aspartame and sucralose) in coffee and iced tea. The key sensory parameters assessed included sweetness quality, aftertaste, bitter taste and its aftertaste. Qualitative evaluation was carried out.
Standard coffee was used in which to evaluate sweetener performance (Table 17).
Sweeteners were added to coffee at the following concentrations:
An ice tea formulation was developed to evaluate sweetener performance (Table 18).
Sweeteners were added to tea at the following concentrations:
The evaluation of these coffee and tea drinks was carried out by a panel (n=6) of experienced sensory evaluators who evaluated the coffee products on one tasting occasion and the tea products on a subsequent occasion.

With `NC(CC(O)(Cc1c[nH]c2ccccc12)C(=O)O)C(=O)O` (racemic) [Monatin, 2-hydroxy-2-(indol-3-ylmethyl)-4-aminoglutaric acid], the SEV in data set [1] (Monatin Conc. 15 ppm) is 3.6 %; w/v; in data set [1] (Monatin Conc. 30 ppm), 4.9 %; w/v; in data set [1] (Monatin Conc. 45 ppm), 7.1 %; w/v; in data set [1] (Monatin Conc. 60 ppm), 8.5 %; w/v; in data set [1] (Monatin Conc. 75 ppm), 9.8 %; w/v; in data set [1] (Monatin Conc. 90 ppm), 10.5 %; w/v. For the same molecule, the relative sweetness intensity in data set [1] (at 10.0% (w/v) SEV, blend of monatin stereoisomers (racemic mix)) is given as 1250 × sweeter than sucrose. Also, the “Effective Relative Sweetness Intensity (x sucrose) of Monatin” value is 2000 x sucrose in data set [2] (sweetness contribution of monatin 25%, sucrose 7.5%, monatin 12.3 ppm); 1600 x sucrose in data set [2] (sweetness contribution of monatin 50%, sucrose 5.0%, monatin 30.8 ppm); 1500 x sucrose in data set [2] (sweetness contribution of monatin 75%, sucrose 2.5%, monatin 50.3 ppm). Besides, the “sweetness intensity when blended with carbohydrate sweeteners” value in data set [2] (blended with carbohydrate sweeteners) is 1500-2000 × sucrose. The “Area Under Curve” value in data set [3] amounted to 117.3 unit × s. For the same molecule, in data set [3], the “Rate of Decline” value was determined as 2.2 unit/s. Further, the “Rate of Onset” value in data set [3] is 14.9 unit/s. The “Time for Sweetness to Decline to Half Maximum Value” in data set [3] came out at 34.2 s. The “Time to Half Maximum Sweetness” value in data set [3] is listed as 2.4 s. Besides, the “Time to Maximum Sweetness” value in data set [3] was 9.0 s. Further, the “Intensity of Maximum Sweetness” value in data set [3] (scale 0-100) is recorded as 66.6 unit. The “loss of monatin SEV” value in data set [4] (8% SEV, after 6 hours in room temperature) is recorded as “no detectable loss”. The “lactonization (LC/MS)” value in data set [4] (room temperature, 0 to 6 hours) was “no lactonization”. Also, the “stability when exposed to ultra violet (UV) light” value in data set [5] was “similarly stable or slightly more stable than aspartame”. For the same molecule, in data set [6] (80° C. and pH 7, up to 35 days), the “change in concentration of monatin or lactones thereof” value was “no change in concentration”. In addition, the “degree of degradation of monatin” value in data set [6] (80° C., pH 7, after 7-35 days) is listed as “insignificant”. In data set [7] (blends), the “quantitative synergy with aspartame, saccharin, acesulfame-K, sucralose, or carbohydrate sweeteners” value is reported as “no significant quantitative synergy”. The “quantitative synergy with cyclamates” value in data set [7] (blends with cyclamates) is “quantitatively synergistic”.

Take `COC(=O)[C@H](Cc1ccccc1)NC(=O)[C@@H](N)CC(=O)O` [Aspartame, aspartame] (H-Asp-Phe-OMe): the “Comments (sensory evaluation)” value in data set [8] is “Balanced sweetness profile. Very low level”.
